In general, melting point refers to the temperature, or range, at which the solid turns liquid.

Among the data in a melting point compilation (Tetko et al.; mined from patent text by program, amines drawn as free bases though some values may be those of a salt) are melting point values, retold here.

The molecule `COc1cc(-c2nc3ccccc3n2Cc2ccccc2Cl)cc(OC)c1OC` came in with a melting point of 174 °C. As for `COc1ccc(O)c(NC(C)=O)c1`, the figure is 156 to 157 °C; as for `CC1(C)SC(c2ccc(O)cc2)NC1C(=O)O` (configuration not stated), 207 to 209 °C.

On to `Nc1scc2c1c(=O)oc1ccc3ccccc3c12`, for which the melting point is 221 to 222 °C.

The molecule `CC(C)CC(=O)Nc1cccc(-c2ccnc3c(-c4cccc(CN5CCN(C)CC5)c4)cnn23)c1` returned a melting point of 135 to 138 °C. `NC(=O)c1sc2nccc(N3CCCC(c4ccccc4)C3)c2c1N` (configuration not stated): the melting point is 267 to 269 °C. On to `COc1ccc(-n2c(=O)c3c(N4CCN(C)CC4)cc(Cl)cc3n(Cc3ccccc3)c2=O)cc1`, for which the melting point was 155 to 158 °C. In turn, `CC(C)(C)c1coc(N)c1C#N` had a melting point of 86 °C. The molecule `CC(=O)NC1=C(N)C(=O)c2cc(C)c(C)cc2C1=O` showed a melting point of 212 to 216 °C. For `CCOC(=O)Cc1ccc(-c2nc(COc3ccc(COc4nn(-c5ccccc5)cc4/C=C/c4cn(CC)cn4)cc3OC)c(C)o2)cc1` the value was 140 to 141 °C. As for `Cc1cc(=O)n2nc(-c3ccncc3)nc2n1C`, the figure is 263 to 267 °C.

On to `N#Cc1c2c(c3c(c1N1CCCCC1)CCc1ccccc1-3)-c1ccccc1C2`, for which the melting point fell in the range of 170 to 172 °C. `CN(O)C(=O)C=Cc1ccc(Cl)c(O)c1` displayed a melting point of 196 °C. As for `O=C1CNc2ncc(-c3cccnc3)cc2N1Cc1ccccc1`, the figure is 58 °C. As for `C#CCc1c(C)nc2c(OCc3ccccc3C)cccn12`, the figure is 138 to 140 °C; as for `COCCNC(=O)c1cccc(-c2cccc3cc(C(O)c4cccc(C(F)(F)F)c4)sc23)c1` (configuration not stated), 126 to 127 °C; as for `O=Cc1cc(OCc2ccccc2)c(OCc2ccccc2)cc1Cl`, 100 to 102 °C. For `O=C1CC(c2cccc(-n3ccnc3)c2)=Nc2ccc(C#Cc3ccccc3F)cc2N1` the value was 201 to 203 °C; for `COc1ccc2cc3c(CN)nn(C)c3nc2c1`, 119 to 120 °C; for `Cc1ccc(N(CCN2CCC(C(=O)c3ccc(F)cc3)CC2)C(=O)c2cccc(N)c2)cc1`, 173 to 175 °C. Turning to `COCCNc1c([N+](=O)[O-])cc(C)cc1[N+](=O)[O-]`, the melting point amounted to 75 °C.

`O=S1(=O)N=C(O)c2ccc(-c3ccccn3)cc21` returned a melting point of 305 to 311 °C.

With `CN(O)C(=O)c1ccc(CCCCc2ccccc2)cc1`, the melting point was 62 to 63.5 °C. As for `CNc1ncnc2c1ncn2CCCN1CCN(c2ccccc2)CC1`, the figure is 162 to 163 °C. Turning to `COc1ccc2c(c1)C(CCNC(C)=O)CC2` (configuration not stated), the melting point lay in the range of 73 to 74 °C.

Turning to `CCCCc1ccc(CCCCSCc2cccc(/C=C/c3cccc(NC(=O)CC(CC)(CC)C(=O)O)c3)n2)cc1`, the melting point is 150 to 151 °C. `Cc1nc2nc[nH]c2c2nc(-c3ccccc3)nn12`: the melting point stood at 285 °C. For `CC(=O)C(=Cc1ccccc1[N+](=O)[O-])C(=O)OCCCl` the value was 82 to 84 °C. For `O=C(O)CCCCCCCc1cncc2ccccc12` the value was 99 to 100 °C; for `COc1nc(NS(=O)(=O)c2ccccc2Cl)nc(OC)n1`, 137 °C.

`Cc1ccc(-c2ccc3c(c2)C=C(C(=O)NC2CCN(C(=O)OC(C)(C)C)CC2)CCO3)cc1` registered a melting point of 205 to 208 °C.

Take `CCOC(=O)c1c(O)c2cccnc2n(C)c1=O`: the melting point fell in the range of 158 to 160 °C.

`COc1ccc(CNc2cc(C(c3cc(F)ccc3F)S(=O)(=O)c3ccc(Cl)cc3)c(Cl)cn2)cc1OC` (configuration not stated) came in with a melting point of 204 to 206 °C.

`CCCN1Cc2ccccc2C(=O)c2cc(CC(=O)O)ccc21`: the melting point was 126 °C. In turn, `CC(CCC(=O)c1ccccc1)C1CC=C2C3=C(CCC21C)C1(C)CCC(O)C(C)(C)C1CC3` (configuration not stated) came in with a melting point of 196 to 199 °C. The molecule `O=C1CCN(C(=O)C(F)(F)F)c2ccccc2CN1` displayed a melting point of 218 to 219 °C. Molecule `CC1(C)Cc2c(c(O)cc3c2C(c2cccc(-c4ccc(NC(=O)OCc5ccccc5)cc4)c2)=NCC3(C)C)O1` displayed a melting point of 161 to 165 °C.

`CCCSc1ncc(C(Cc2ccccc2)C(=O)O)n1Cc1ccccc1Cl` (configuration not stated) returned a melting point of 60 to 63 °C. As for `COC(=O)c1ccoc1CCNC(=O)C[C@H]1O[C@H](c2cccc(OC)c2OC)c2cc(Cl)ccc2N(CC(C)(C)CO)C1=O`, the figure is 81 to 83 °C; as for `COc1ccc(-c2cc3cc(F)c(F)cc3[nH]2)cc1NS(C)(=O)=O`, 254 to 256 °C. The molecule `N=C(Nc1ccc(Cl)cc1)Nc1ncccc1OCc1cccc(Cl)c1F` displayed a melting point of 204 to 207 °C. `O=C(O)CCc1cnoc1-c1ccc(Cl)c(Br)c1` yielded a melting point of 177 to 180 °C. For `Cc1sc2c(c1C)C(c1ccc(Cl)cc1)=NC(CC(=O)Nc1ncccn1)c1nnc(C)n1-2` (configuration not stated) the value was 251 to 253 °C; for `N#Cc1cc(N)ccc1Oc1ccccc1`, 89 °C.

Molecule `CCOC(=O)C1(C(=O)N(Cc2ccccc2)Cc2ccccc2)CC(=O)N(Cc2ccccc2)C1` (configuration not stated) registered a melting point of 112 to 115 °C. As for `c1cnc(N2CCN(Cc3ccc4ccccc4c3)CC2)nc1`, the figure is 109 to 110 °C. The molecule `CC(=O)COc1ccc2ccc(Oc3c(Cl)cc(C(F)(F)F)cc3Cl)cc2c1` gave a melting point of 132 °C. Turning to `COC(=O)C=Cc1cccc(NC(=O)c2cccn2C)c1`, the melting point fell in the range of 89 to 90 °C. As for `Nc1ccc(NC(=O)CN2CCCCC2)cc1`, the figure is 106 to 107 °C. Turning to `CCOC(=O)NN=Cc1nc(C(C)(C)C)[nH]c1C`, the melting point was 226 to 228 °C.

Take `CC(C)(CC(=O)C(=O)Nc1ccc2c(c1Br)COC2=O)c1ccccc1`: the melting point lay within 150 to 152 °C. As for `C#CCN(c1cc(-n2nc3ccc(Cl)cn3c2=O)c(F)cc1C#N)S(=O)(=O)CC`, the figure is 176 to 178 °C. The molecule `O=C(O)CCCCCOc1ccc(C2OC3C(CO)OC(n4ccc(=O)[nH]c4=O)C3O2)cc1` (configuration not stated) registered a melting point of 158 to 160 °C.

In the case of `Cc1c(-c2ccc(N3CCOC3=O)cc2)nc2n1CCc1ccccc1C2OC1CCN(C)CC1` (configuration not stated), the melting point worked out at 214 °C. The molecule `N#Cc1csc(Oc2ccc(-c3ccc(Oc4scc(C#N)c4C#N)cc3)cc2)c1C#N` had a melting point of 262 to 264 °C. In the case of `O=C1[C@H]2CCC[C@H]2Nc2ccc(Cl)cc2N1Cc1ccccc1` (relative stereo), the melting point lay in the range of 160 to 163 °C. Molecule `Cc1cc(Cl)ccc1-c1nn(C(C)(C)C(=O)N(C)C)cc1C` registered a melting point of 99 to 100 °C. For `Cc1noc(C)c1-c1cccc2c1C1(COc3cc4c(cc31)OCCO4)C(=O)N2C` (configuration not stated) the value was 228 to 230 °C. For `CC(=O)N1C(=O)C(C(=O)c2cccnc2)c2ccccc21` (configuration not stated) the value was 141 to 142 °C; for `Cc1oc(-c2ccccc2)nc1COc1ccc(Cn2cc(CO)c(C(C)C)n2)cc1`, 98 to 99 °C; for `O=C1C(=O)c2ccccc2C2=C1SCC1(CCN(S(=O)(=O)c3ccc(Cl)c(Cl)c3)CC1)O2`, 275 to 276 °C. As for `O=C(NC(=NCCCc1c[nH]cn1)NCC(O)COc1ccccc1)c1ccccc1` (configuration not stated), the figure is 129 °C.
